According to patent US20260071117A1, “FUNABLE FLUORESCENT COMPOUNDS AND USES THEREOF” (Arizona Board of Regents on Behalf of the University of …, priority 2021, published 2026):
Values joined by “and” are separate entries in the source; they are usually repeats but may differ in a detail not shown here. Equal entries are not always repeated. Where two headings read alike, the source gives them in different places.

Tests used:
[1] = Absorbance and fluorescence measurements (excitation maximum, emission maximum, quantum yield vs coumarin 151); type: physicochemical; design: key to Quantum Yield: fraction relative to coumarin 151 in ethanol standard; conditions: for λex: absorbance/excitation maximum; for Quantum Yield: coumarin 151 in ethanol as standard; for λem: emission maximum
Source text: All reagents and solvents were acquired from commercially available suppliers and used without further purification. Methanol(dried on molecular sieves-Acroseal) was obtained from Acros. […] 1H and 13C NMR spectra were obtained on a Bruker NMR spectrometer at 500/400 and 125/100 MHz respectively. The data is reported as follows: chemical shift in ppm (δ), multiplicity (s=singlet, d=doublet, dd=doublet of doublets, t=triplet, dt=doublet of triplets, td=triplet of doublets, q=quartet, p=pentet, m=multiplet). Coupling constants are reported in Hertz (Hz) and were automatically generated using known NMR analyzer software (MestReNova), these were then subsequently curated. High-resolution mass spectra were obtained using the positive ESI method for all the compounds, obtained in an Ion Cyclotron Resonance (ICR) spectrometer. Absorbance spectra were obtained using an Agilent 8453 UV-visible spectroscopy system. Fluorescence was measured on a Varian (Agilent) Cary Eclipse Fluorimeter. Quantum yield measurements were calculated and reported using coumarin 151 in ethanol as a standard.^1 Fluorescence scans were obtained using a 2.5 mm slit width unless otherwise noted.
The fluorescence was also measured in different solvents to examine the solvent effects.

[2] = previously published amine, comparison in Example I; cited from earlier work
[3] = 2.5 mm slit width, measurements run with methanol

Row | Molecule | λex ([1]; measurements run with methanol) | Quantum Yield [1, 3] | λem [1, 3] | also measured
1 | COc1cccc(-c2nc3c(nc4ccccn43)c3cc(OC)ccc23)c1 [Compound 16a, 2-methoxy-5-(3-methoxyphenyl)pyrido[2′,1′:2,3]imidazo[4,5-c]isoquinoline] | 361 nm | 0.05 | 417 nm | Quantum Yield [2]: 0.02; emission maxima [2]: 505 nm; excitation maxima [2]: 292 nm
2 | COc1cc(-c2nc3c(nc4cccnn43)c3cc(OC)c(OC)c(OC)c23)cc(OC)c1OC [Compound 16f, 2,3,4-trimethoxy-5-(3,4,5-trimethoxyphenyl)pyridazino[6′,1′:2,3]imidazo[4,5-c]isoquinoline] | 295 nm | 0.07 | 488 nm | 
3 | Nc1c(-c2ccc(N(c3ccccc3)c3ccccc3)cc2)nc2ccccn12 [Compound 10p, 2-(4-(diphenylamino)phenyl)imidazo[1,2-a]pyridin-3-amine] | 353 nm | 0.34 | 471 nm | 
4 | COc1cc(OC)cc(-c2nc3cnccn3c2N)c1 [Compound 10s, 2-(3,5-dimethoxyphenyl)imidazo[1,2-a]pyrazin-3-amine] | 382 nm | 0.35 | 477 nm | 
5 | Cc1nn2c(NCc3ccccc3)c(-c3ccc4ccccc4c3)nc2nc1/C=C/c1ccc2ccccc2c1 [Compound 75, (E)-N-benzyl-2-methyl-6-(naphthalen-2-yl)-3-(2-(naphthalen-2-yl)vinyl)imidazo[1,2-b][1,2,4]triazin-7-amine] | 529 nm | 0.34 | 646 nm | 
6 | COc1cc(/C=C/c2nc3nc(-c4cc(OC)cc(OC)c4)c(NC(C)(C)C)n3nc2C)cc(OC)c1 [Compound 46, (E)-N-(tert-butyl)-6-(3,5-dimethoxyphenyl)-3-(3,5-dimethoxystyryl)-2-methylimidazo[1,2-b][1,2,4]triazin-7-amine] | 461 nm | 0.19 | 638 nm | 
7 | CCN(CC)c1ccc(-c2nc3cc([N+](=O)[O-])ccn3c2N)cc1 [Compound 10ba, 2-(4-(diethylamino)phenyl)-7-nitroimidazo[1,2-a]pyridin-3-amine] | 550 nm |  |  | fluorescence (observation in words) [1]: fluorescence intensity is low; Quantum Yield ([1]; 10 mm slit): 0.09; λem ([1]; 10 mm slit width): 720 nm
8 | COc1cc(OC)c2c(-c3ccc([N+](=O)[O-])cc3)nc3c(nc4ccccn43)c2c1 [Compound 18b, 2,4-dimethoxy-5-(4-nitrophenyl)pyrido[2′,1′:2,3]imidazo[4,5-c]isoquinoline] | 370 nm |  |  | fluorescence (observation in words) [1]: quenched the fluorescence fully
9 | COc1cc(OC)cc(-c2nc3ccccn3c2N)c1 [Compound 10d, 2-(3,5-dimethoxyphenyl)imidazo[1,2-a]pyridin-3-amine] | 344 nm | 0.35 | 473 nm and 478 nm | 
10 | COc1cc(-c2nc3cc([N+](=O)[O-])ccn3c2N)cc(OC)c1OC [Compound 10az, 7-nitro-2-(3,4,5-trimethoxyphenyl)imidazo[1,2-a]pyridin-3-amine] | 485 nm |  |  | Quantum Yield ([1]; 10 mm slit): 0.11; λem ([1]; 10 mm slit width): 651 nm
11 | 2-(3,4,5-trimethoxyphenyl)imidazo[1,2-a]pyridin-3-amine [Compound 10a] | 343 nm | 0.36 | 474 nm | 
12 | Nc1c(-c2ccccn2)nc2ccccn12 [Compound 10h, 2-(pyridin-2-yl)imidazo[1,2-a]pyridin-3-amine] | 370 nm |  |  | 
13 | Nc1c(-c2ccc([N+](=O)[O-])cc2)nc2ccccn12 [Compound 10k, 2-(4-nitrophenyl)imidazo[1,2-a]pyridin-3-amine] | 304 nm |  |  | fluorescence (observation in words) [1]: did not show any observable fluorescence intensity
14 | CC(C)(C)Nc1c(-c2ccc(-c3nc4ccccn4c3NC(C)(C)C)cc2)nc2ccccn12 [Compound 10ap, 2,2′-(1,4-phenylene)bis(N-(tert-butyl)imidazo[1,2-a]pyridin-3-amine)] | 344 nm | 0.30 | 458 nm | 
15 | COc1ccc(-c2nc3cc(OC)ccn3c2N)cc1 [Compound 10at, 7-methoxy-2-(4-methoxyphenyl)imidazo[1,2-a]pyridin-3-amine] | 344 nm | 0.10 | 500 nm | 
16 | COC(=O)c1ccn2c(N)c(-c3ccccc3)nc2c1 [Compound 10ah, methyl 3-amino-2-phenylimidazo[1,2-a]pyridine-7-carboxylate] | 394 nm | 0.40 | 510 nm | 
17 | COc1cc(/C=C/c2nc3nc(-c4cc(OC)c(OC)c(OC)c4)c(NC(C)(C)C)n3nc2C)cc(OC)c1OC [Compound 48, (E)-N-(tert-butyl)-2-methyl-6-(3,4,5-trimethoxyphenyl)-3-(3,4,5-trimethoxystyryl)imidazo[1,2-b][1,2,4]triazin-7-amine] | 506 nm | 0.28 | 633 nm | 
